Laboratory results taken from PubChem BioAssay (NCI).
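Test compounds were applied to cells in 96-well plates for 48 hours at 5 doses. TGI: total growth inhibition.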

Experiments:
Test in all cases: NCI-60 cell line screen, 48 h
HL-60(TB) leukemia = system: HL-60(TB) leukemia
MOLT-4 leukemia = system: MOLT-4 leukemia
SK-OV-3 ovarian = system: SK-OV-3 ovarian
TK-10 renal = system: TK-10 renal
HCC-2998 colon = system: HCC-2998 colon
RPMI-8226 leukemia = system: RPMI-8226 leukemia
UACC-62 melanoma = system: UACC-62 melanoma
NCI-H226 lung = system: NCI-H226 lung
U251 CNS = system: U251 CNS
OVCAR-5 ovarian = system: OVCAR-5 ovarian
NCI/ADR-RES ovarian = system: NCI/ADR-RES ovarian
HCT-116 colon = system: HCT-116 colon
OVCAR-8 ovarian = system: OVCAR-8 ovarian
PC-3 prostate = system: PC-3 prostate
SR leukemia = system: SR leukemia
DU-145 prostate = system: DU-145 prostate
T-47D breast = system: T-47D breast
OVCAR-4 ovarian = system: OVCAR-4 ovarian
MDA-MB-231 breast = system: MDA-MB-231 breast
MALME-3M melanoma = system: MALME-3M melanoma

Compound | TGI (HL-60(TB) leukemia) [µM] | TGI (MOLT-4 leukemia) [µM] | TGI (SK-OV-3 ovarian) [µM] | TGI (TK-10 renal) [µM] | TGI (HCC-2998 colon) [µM] | TGI (RPMI-8226 leukemia) [µM] | TGI (UACC-62 melanoma) [µM] | TGI (NCI-H226 lung) [µM] | TGI (U251 CNS) [µM] | TGI (OVCAR-5 ovarian) [µM] | TGI (NCI/ADR-RES ovarian) [µM] | TGI (HCT-116 colon) [µM] | TGI (OVCAR-8 ovarian) [µM] | TGI (PC-3 prostate) [µM] | TGI (SR leukemia) [µM] | TGI (DU-145 prostate) [µM] | TGI (T-47D breast) [µM] | TGI (OVCAR-4 ovarian) [µM] | TGI (MDA-MB-231 breast) [µM] | TGI (MALME-3M melanoma) [µM]
Nc1nc(Cl)c2ncn(Cc3ccc(CCl)cc3)c2n1 | > 100 | > 100 | 31.1 | 40.5 | 8.95 | > 100 | 8.18 | 37.1 | 12 | 14.9 | 26.7 | 14.5 | 32.8 | 25 | 9.37 | 19.5 | 40.1 | 30.1 | 34.6 | 27.3
c1ccc2c(c1)nc1n2CCCn2ccnc2-1 | 0.597 | > 100 | 9.03 | – | – | > 100 | > 100 | > 100 | > 100 | > 100 | > 100 | > 100 | > 100 | > 100 | > 100 | > 100 | > 100 | > 100 | > 100 | > 100
COC1CC(OC2C(C)OC(OC3C(C)OC(OC4C(O)CC(O[C@H]5CC[C@@]6(C)C(=CC[C@]7(O)[C@@H]6C[C@@H](OC(=O)/C=C/c6ccccc6)[C@@]6(C)[C@]7(O)CC[C@@]6(O)C(C)=O)C5)OC4C)CC3OC)CC2OC)OC(C)C1O (some centres not stated) | > 6.25 | > 6.25 | > 6.25 | > 6.25 | > 6.25 | > 6.25 | > 6.25 | > 6.25 | > 6.25 | > 6.25 | > 6.25 | > 6.25 | > 6.25 | > 6.25 | > 6.25 | > 6.25 | > 6.25 | > 6.25 | > 6.25 | > 6.25
O=C1CC(O)c2c(Br)sc(Br)c21 (configuration not stated) | 14.9 | 4.61 | 30.3 | 13.3 | 18 | 11.8 | 26.3 | – | 16.4 | 38.6 | > 100 | 26.7 | 24.1 | 25.9 | 29.6 | 22.2 | 30.5 | – | 29.9 | 32.9
COC(=O)c1ccccc1CC1Cc2ccc3c(c2C1)CCC3 (configuration not stated) | 32.1 | 53.9 | > 100 | > 100 | 45.7 | 47.7 | > 100 | > 100 | 85.1 | 91.3 | 45.7 | > 100 | > 100 | > 100 | 27.1 | > 100 | > 100 | > 100 | 50.5 | 38.6
C=CC(c1ccccc1)[C@@]1(OC(C)=O)C(=O)C(=O)OC1C1COC(C)(C)O1 (some centres not stated) | 5.86 | 34.6 | 32.3 | 27.1 | 32.8 | 56.4 | 29 | 37.6 | 28.7 | 33.2 | 51.7 | 24.7 | 27.9 | 24.3 | 10.2 | 54.2 | 41.1 | 30.5 | 28.5 | 34.3
CC(=O)OCC1OC(n2c(-c3ccccc3)c(C(C)=O)c(-c3ccc(Cl)cc3)c(C#N)c2=S)C(OC(C)=O)C(OC(C)=O)C1OC(C)=O (configuration not stated) | > 100 | > 100 | > 100 | > 100 | > 100 | – | > 100 | > 100 | > 100 | > 100 | > 100 | > 100 | > 100 | 8.46 | > 100 | > 100 | > 100 | > 100 | > 100 | > 100
COc1cc(/C=C2\C[C@H]3[C@@H]4CC=C5C=C(N6CCCC6)CC[C@]5(C)[C@H]4CC[C@]3(C)C2=O)cc(OC)c1OC | 17.8 | > 28 | 22.1 | 21.4 | 3.57 | > 28 | 5.46 | 34.3 | 4.7 | 30.8 | > 23.3 | 3.93 | 6.1 | 15.2 | > 100 | 12.8 | 11.1 | 22.5 | 6.62 | 5.61
CN(CCCCN1CCCC1)CCCN(C)C(=O)Cc1ccc(Cl)c(Cl)c1 | 34.1 | 26.5 | > 100 | 33.7 | 16.9 | 25.9 | 16.9 | 51.9 | 32.4 | 57.8 | > 100 | 28.3 | > 100 | 52.7 | 15.6 | > 100 | 44.2 | 53.8 | 26.1 | 34.7
CCCCCCCCCc1cc(-c2ccc(C=O)s2)sc1-c1ccc(C=O)s1 | 51.1 | 10.5 | 67.2 | 34.7 | > 78.7 | 51.2 | 23.7 | 9.94 | 29 | > 91.6 | > 78.6 | 49 | > 59 | > 100 | 26.9 | > 100 | > 85.6 | > 80.4 | > 77.9 | > 100
Oc1cc(Br)cc2cccnc12 | 0.82 | 9.84 | 79.9 | > 100 | 98.2 | 5.68 | 7.81 | 58 | > 58.4 | > 100 | 8.26 | 16.8 | > 35.4 | > 100 | 5.92 | > 100 | 25.4 | > 65.3 | 19.1 | 47
CC(C)(C)C(=O)C(C(=O)C(C)(C)C)C(=O)C(C)(C)C | > 100 | > 100 | > 100 | > 100 | > 100 | > 100 | – | > 100 | > 100 | > 100 | > 100 | > 100 | > 100 | > 100 | > 100 | > 100 | > 100 | > 100 | > 100 | > 100
CC(C)(C)c1cc(C2NCCO2)cc(C(C)(C)C)c1O (configuration not stated) | > 100 | > 100 | > 100 | > 100 | – | > 100 | > 100 | > 100 | > 100 | > 100 | > 100 | > 100 | > 100 | > 100 | > 100 | > 100 | 27.6 | > 100 | 54.8 | > 100
Cc1ccc(NC(=O)CSc2nc(C)nc3c2sc(=S)n3-c2ccccc2)cc1 | > 10 | > 10 | > 10 | > 10 | > 10 | > 10 | > 10 | 9.43 | > 10 | > 10 | > 10 | > 10 | > 10 | > 10 | > 10 | > 10 | > 10 | 6.06 | > 10 | > 10
CS/C1=C(\c2ccc(C)cc2)N(c2ccccc2)C(=O)C(=O)N(c2ccccc2)/C(c2ccc(C)cc2)=C(/SC)SS1 | > 100 | > 100 | – | > 100 | > 100 | > 100 | > 100 | – | > 100 | > 100 | > 100 | > 100 | > 100 | > 100 | > 100 | > 100 | > 100 | > 100 | > 100 | > 100
COc1cc(OC)c2c(=O)cc(-c3ccccc3F)[nH]c2c1 | > 100 | > 100 | > 100 | 84.4 | 52.3 | > 100 | > 100 | > 100 | > 100 | > 100 | > 100 | > 100 | > 100 | > 100 | > 100 | > 100 | > 100 | 53.3 | > 100 | > 100
COC(=O)C1(c2cc3ccccc3n2S(=O)(=O)c2ccccc2)CC2C=CC1NC2 (configuration not stated) | 4.71 | 4.95 | 13.2 | 4.85 | 3.8 | 2.74 | 3.31 | 21.4 | 2.75 | 6.37 | 6.95 | 6.16 | 4.42 | 3.05 | 0.427 | 6.62 | 13.5 | 6.07 | 3.67 | > 22.8
OC1(c2ccccc2)CC2CCC(C1)N2CCCC1(c2ccc(F)cc2)OCCO1 (configuration not stated) | > 100 | > 100 | > 100 | > 100 | – | > 100 | > 100 | – | > 100 | > 100 | 29.1 | > 100 | 30.2 | > 100 | > 100 | > 100 | > 100 | > 100 | > 100 | > 100
Cc1ccc(N=Nc2ccc(O)c(CN(C)C)c2)cc1C | 26.1 | 61.5 | > 100 | 43.3 | 32.7 | 90.1 | 34.6 | > 100 | > 100 | > 100 | 52.6 | > 100 | > 100 | > 100 | > 100 | 95.8 | 41.9 | > 100 | > 100 | 34.8
C=C(C)C1Cc2c(cc(O)c3c(=O)c4c(oc23)C(O)Oc2cc(OC)c(OC)cc2-4)O1 (configuration not stated) | > 10 | > 10 | – | > 10 | > 10 | > 10 | > 10 | > 10 | > 10 | > 10 | > 10 | > 10 | > 10 | > 10 | > 10 | > 10 | > 10 | > 10 | > 10 | > 10
CN(C)c1ccc(/C=c2/c3ccccc3n3nc4ccccc4c23)cc1 | > 100 | > 100 | > 100 | > 100 | – | 39.1 | > 100 | – | > 100 | > 100 | > 100 | > 100 | > 100 | > 100 | 25.1 | > 100 | 55.4 | – | > 100 | > 100
Cc1c(C)c2c(c(N)c1C#N)C(=O)N(Nc1ccccc1)C2=O | > 100 | > 100 | – | > 100 | > 100 | > 100 | > 100 | > 100 | > 100 | > 100 | > 100 | > 100 | > 100 | > 100 | > 100 | > 100 | > 100 | > 100 | > 100 | > 100
COc1cc(CNc2ccc3nc4n(c(=O)c3c2)CCCCC4)cc(OC)c1OC | > 100 | > 100 | > 100 | > 100 | – | > 100 | > 100 | > 100 | > 100 | > 100 | > 100 | > 100 | > 100 | > 100 | > 100 | > 100 | > 100 | > 100 | > 100 | > 100
COc1ccc(C(=O)Cn2c(C(=O)/C=C/c3ccco3)nc3ccccc32)cc1 | 71.7 | > 100 | 97.4 | > 100 | 37.1 | 88.7 | > 100 | > 100 | > 100 | > 100 | 75.2 | > 100 | – | > 100 | > 100 | > 100 | > 100 | > 100 | > 100 | > 100
